Assay results published in US7569547B2, “Inhibiting furin with polybasic peptides” (Board of Supervisors of Louisiana State University and …, priority 2001, dated 2009).
Read-outs that look alike come from different tables or passages of the source.

What was measured:
PACE4 = biological target: T1, PACE4 (Rattus norvegicus, UniProt Q63415); assay: PACE4 enzyme assay, hydrolysis of pERTKR-MCA; format: biochemical
T1 construct: made in house; host or cells: stably transfected hEK-293 cells (gift of R. E. Mains), conditioned medium
T1 sequence (Q63415 133-937): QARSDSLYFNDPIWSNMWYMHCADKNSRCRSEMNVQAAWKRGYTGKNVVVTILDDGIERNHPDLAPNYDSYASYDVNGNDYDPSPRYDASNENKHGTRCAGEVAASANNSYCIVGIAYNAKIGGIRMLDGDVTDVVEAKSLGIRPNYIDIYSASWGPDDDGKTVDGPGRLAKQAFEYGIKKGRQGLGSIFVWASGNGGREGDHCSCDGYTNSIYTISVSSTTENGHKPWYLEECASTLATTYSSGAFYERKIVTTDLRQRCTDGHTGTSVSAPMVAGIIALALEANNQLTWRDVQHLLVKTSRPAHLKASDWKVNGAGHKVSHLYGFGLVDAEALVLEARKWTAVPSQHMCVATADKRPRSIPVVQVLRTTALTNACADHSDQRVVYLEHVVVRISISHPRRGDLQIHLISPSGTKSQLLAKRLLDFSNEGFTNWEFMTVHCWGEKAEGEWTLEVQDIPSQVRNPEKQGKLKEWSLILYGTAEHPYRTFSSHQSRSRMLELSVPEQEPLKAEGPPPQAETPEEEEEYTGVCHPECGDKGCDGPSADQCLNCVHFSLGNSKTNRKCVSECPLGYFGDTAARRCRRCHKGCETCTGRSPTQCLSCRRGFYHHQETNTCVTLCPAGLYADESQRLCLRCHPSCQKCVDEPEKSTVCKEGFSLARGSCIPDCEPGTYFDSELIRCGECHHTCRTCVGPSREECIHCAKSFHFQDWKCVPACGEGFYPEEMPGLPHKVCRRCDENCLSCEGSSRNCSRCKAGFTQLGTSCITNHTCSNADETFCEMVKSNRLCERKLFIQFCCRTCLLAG
Description: The proprotein convertase PACE4 was partially purified from an overnight-conditioned medium of stably transfected hEK-293 human embryonic kidney cells (a generous gift of R. E. Mains, Johns Hopkins University School of Medicine, Baltimore, Md.). Briefly, 100 mL of conditioned medium (OptiMEM containing 100 μg/mL aprotinin) was loaded onto an Econo-Pac Q (Bio-Rad) column at 4 mL/min, washed with 10 mL of buffer A, and then eluted with a linear gradient of buffer A containing 500 mM NaCl over 50 mL. The active fractions were then diluted 1:4 with buffer A prior to loading onto a Mono Q column (Pharmacia) at 1 mL/min. The PACE4 was eluted with a linear gradient of buffer A containing 500 mM NaCl over 10 mL. The resulting active fractions were then pooled and stored at −80° C. until use.
(§1) Enzyme Assays and Hexapeptide Library Screening. Enzyme assays for PC1 and PC2 were performed at pH 5.0 using pERTKR-MCA (Peptides International Inc., Louisville, Ky.) as described in E. Apletalina et al., J. Biol. Chem., vol. 273, pp. 26589-26595 (1998). The assay for furin was performed using the same substrate at pH 7.0 in 100 mM HEPES, 5 mM CaCl2, 0.1% Brij 35. All assays were performed at 37° C. in a 96 well fluorometer (Labsystems) at an excitation wavelength of 380 nm with emission monitored at a wavelength of 460 nm. The total volume was 50 μL. Unless otherwise stated, the final substrate concentration for all assays was 200 μM. When used in a particular experiment, the inhibitory peptides were pre-incubated with enzyme for 30 min at room temperature prior to addition of substrate. All assays were performed in duplicate or triplicate.

recombinant mouse furin = biological target: T2, recombinant mouse furin (Mus musculus, UniProt P23188); assay: Furin enzyme assay, hydrolysis of pERTKR-MCA at pH 7.0; format: biochemical; conditions: for type of inhibition of furin (Lineweaver-Burk plots): furin 30 nM, 0, 20 or 40 μM hexapeptide, polyarginines forty-fold lower
T2 construct: truncated N-terminally to the transmembrane domain at His^711 using PCR; myc (C, cleaved yes); hexa-His (C, cleaved yes); made in house; host or cells: DG44 CHO cells, conditioned medium
T2 sequence (P23188 108-714 limits assumed): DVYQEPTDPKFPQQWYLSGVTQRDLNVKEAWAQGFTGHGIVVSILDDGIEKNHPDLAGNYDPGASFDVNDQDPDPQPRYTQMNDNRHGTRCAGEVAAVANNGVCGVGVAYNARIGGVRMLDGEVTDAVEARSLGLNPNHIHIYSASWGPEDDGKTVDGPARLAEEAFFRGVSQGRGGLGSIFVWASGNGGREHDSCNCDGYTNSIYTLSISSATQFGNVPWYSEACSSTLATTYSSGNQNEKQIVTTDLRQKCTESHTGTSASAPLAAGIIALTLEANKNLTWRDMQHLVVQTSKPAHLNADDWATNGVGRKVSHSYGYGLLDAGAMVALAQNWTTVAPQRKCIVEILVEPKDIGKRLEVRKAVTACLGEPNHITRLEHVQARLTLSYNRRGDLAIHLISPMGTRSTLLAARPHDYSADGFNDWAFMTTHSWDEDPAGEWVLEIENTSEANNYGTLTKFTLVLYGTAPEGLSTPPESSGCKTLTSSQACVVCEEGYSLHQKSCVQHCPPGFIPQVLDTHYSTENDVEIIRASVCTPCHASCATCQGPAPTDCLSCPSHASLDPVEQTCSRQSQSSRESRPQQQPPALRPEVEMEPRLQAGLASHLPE
Text: Recombinant convertase preparation. The mouse furin clone was a kind gift from K. Nakayama (Fukuoka University School of Medicine, Fukuoka, Japan). The mouse furin cDNA was truncated N-terminally to the transmembrane domain at His^711 using PCR. This PCR product was then subcloned into pcDNA3.1 (−) myc-His (Invitrogen) at the Nhe1 and Xba1 restriction sites. Dihydrofolate-reductase-negative DG44 Chinese Hamster Ovary (CHO) cells (L. Chasin, Columbia University, New York, N.Y.) were transfected using Lipofectin (Life Technologies), and colonies were selected at 37° C. in 5% CO2 in α-MEM (lacking nucleosides) containing 10% well-dialyzed fetal bovine serum (Life Technologies). Conditioned media from colonies were screened using an enzyme assay (see below), and a high-expressing clone was selected. Overexpression of furin was achieved by increasing the methotrexate concentration from 5 nM to 50 μM in five- to ten-fold steps as described in I. Lindberg et al., Methods Neurosci., vol. 23, pp. 94-108 (1995). The amplified lines were tested for increased furin expression by enzyme assay. Once the 50 μM methotrexate level had been reached, cells were split at ratios of 1:6 twice a week. 100 mL of conditioned media (OptiMEM, Life Technologies) containing 100 μg/mL aprotinin (Miles Laboratories, Kankakee, Ill.) was collected from confluent roller bottles every 24 h. The medium was then centrifuged at low speed to remove cells, and the supernatant was stored at −80° C. until use.
Purification of furin: Conditioned medium was thawed, pooled, and diluted 1:3.5 with buffer A (20 mM HEPES, 0.1% Brij 35, 5 mM CaCl2, pH 7.4), and pumped at 40 mL/min through a Sartorius D100 anion exchange membrane. The membrane was washed with 40 mL of buffer A, followed by 40 mL of buffer A containing 50 mM NaCl, and finally by 40 mL of buffer A containing 200 mM NaCl. The fraction eluting with 200 mM NaCl was diluted 1:4 with buffer A and applied to a 1 mL Pharmacia Mono Q HR5/5 anion exchange column at a flow rate of 1 mL/min. Following a 10 mL wash with buffer A, furin was eluted by a linear increase of 0 to 500 mM NaCl in buffer A over 30 mL; and 2 mL fractions were collected. Fractions containing peak activity were pooled, and 200 μL aliquots were subjected to gel permeation chromatography using a Pharmacia Superose 12 column at a flow rate of 0.5 mL/min of buffer A containing 200 mM NaCl. Fractions were assayed for activity as described below; protein content was determined using the Bradford method. All purification steps were performed at 4° C.
as §1

| Structure (SMILES) | Ki (PACE4) [nM] | Ki (recombinant mouse furin) [nM] | type of inhibition of furin (Lineweaver-Burk plots) (recombinant mouse furin) | Ki (PACE4; polyarginine peptides, mean ± S.D., three experiments, read-out: Ki PACE4) [nM] |
| --- | --- | --- | --- | --- |
| N=C(N)NCCC[C@H](NC(=O)[C@H](CCCNC(=N)N)NC(=O)[C@H](CCCNC(=N)N)NC(=O)[C@H](CCCNC(=N)N)NC(=O)[C@H](CCCNC(=N)N)NC(=O)[C@H](CCCNC(=N)N)NC(=O)[C@H](CCCNC(=N)N)NC(=O)[C@H](CCCNC(=N)N)NC(=O)[C@@H](N)CCCNC(=N)N)C(=O)O [Nona-L-arginine] | 110 ± 13 | 42 | strictly competitive-type inhibition | – |
| N=C(N)NCCC[C@H](NC(=O)[C@H](CCCNC(=N)N)NC(=O)[C@H](CCCNC(=N)N)NC(=O)[C@H](CCCNC(=N)N)NC(=O)[C@H](CCCNC(=N)N)NC(=O)[C@@H](N)CCCNC(=N)N)C(=O)O [Hexa-L-arginine] | 520 ± 45 | – | strictly competitive-type inhibition | – |
| N=C(N)NCCC[C@@H](NC(=O)[C@H](N)CCCN=C(N)N)C(=O)N[C@H](CCCNC(=N)N)C(=O)N[C@H](CCCNC(=N)N)C(=O)N[C@H](CCCNC(=N)N)C(=O)N[C@H](CCCN=C(N)N)C(=O)O [Hexa-D-arginine] | – | – | strictly competitive-type inhibition | 580 ± 40 |
